Laboratory results reported in patent publication US8389544B2, “Isoquinolone compounds as subtype-selective agonists for melatonin receptors MT1 and MT2” (The Hong Kong University of Science and Technology, priority 2007, dated 2013).

Experiments:
[1] = target: T1, MT1 receptor (Homo sapiens, UniProt P48039); assay: Competitive [3H]melatonin binding assay, MT1; set-up: expressed in transfected cells
Procedure: (§1) Competitive ligand binding assays were performed to examine the receptor binding characteristics of the novel isoquinolone compounds. The assay measures the ability of the novel isoquinolone compounds to bind and displace the radiolabelled endogenous ligand, [^3H]melatonin. Increasing concentrations of the novel compounds are added to displace the [^3H]melatonin-bound to MT1 or MT2 receptor-expressing cells.
(§2) 4. Competitive Binding Assay
(§3) The ability of compounds to bind to MT1 and/or MT2 receptors is determined using radioligand binding assays. […] 48 hours following transfection, cells are harvested in binding buffer (50 mM Tris-HCl, 2 mM MgCl2, 1 mM EDTA, pH 7.4). 100,000 cells are incubated with 1 nM [^3H] melatonin (specific activity: 83 Ci/mmol; GE Healthcare) and appropriate concentrations (0.1 nM to 1 μM) of unlabelled ligands in a total volume of 100 μl in 96-well plates (PerkinElmer Life And Analytical Sciences, Inc., Boston, Mass.) for 2 hours at room temperature. Reactions are terminated by rapid filtration through a 96-well cell harvester onto 96-well GF/C filter mats. Filters are washed with 500 μl of ice-cold binding buffer, dried and sealed in a polyethylene bag with 3.5 ml of scintillation fluid and counted for tritium in a Microbeta Jet scintillation counter. […] Data are analyzed by nonlinear least-squares regression using GraphPad Prism 3.02.

[2] = system: Parental 293; assay: MTT cytotoxicity assay, parental 293 cells; assay type: cell-based; conditions: percentage of untreated control cells
Procedure: (§4) This assay evaluates the cytotoxic effects of the novel isoquinolone compounds based on the cellular viability under chronic treatments. Viable cells but not dead cells can turn the substrate into a colored product, which yields higher absorbance. […] A low percentage indicates low cytoviability (or high cytotoxicity).
(§5) 5. Cytotoxicity Test Using MTT Assay
(§6) Cells were seeded into clear 96-well plate at an appropriate density in 100 μl growth medium and were allowed to grow overnight. The novel isoquinolone compounds were diluted to desired concentrations using fresh growth medium, and these dilutions were used to replace the growth media in each well. After incubating for 24-96 h, 10 μl of the MTT labeling reagent (Roche) was added to each well and the cells were incubated in a CO2 incubator for 4 h. 100 μl solubilization buffer was then added into each well and incubated overnight for complete solubilization of the purple formazan crystals. […] Each condition was performed in triplicate in every experiment and the results were expressed as % of blank control±SD.

[3] = target: T1, MT1 receptor; assay: CRE-Luc (luciferase reporter gene) assay, MT1; assay type: cell-based; set-up: expressed in transfected cells; conditions: HEK 293-pCREluc cells with MT1; inhibition of forskolin response
Procedure: (§7) The luciferase reporter gene assay offers another way to measure melatonin receptor activation. Cells expressing cAMP-responsive element-driven luciferase reporter gene (293-pCREluc) and either the MT1 or MT2 receptor are treated with forskolin (a substance which stimulates cAMP production as well as the subsequent luciferase gene expression) alone or with a novel isoquinolone compound. As melatonin receptor activation inhibits cAMP production, any suppression in the expression of luciferase leads to a decrease in enzymatic activities and a reduction in the amount of luminescence signal generated.
(§8) The luciferase assay, a reporter gene assay, was performed to confirm the ability of the invention to activate the melatonin receptors. Prior to the assay, HEK (human embryonic kidney) 293 cells are stably transfected with cAMP-responsive element-driven luciferase reporter gene (293-pCREluc) and cDNAs encoding MT1 or MT2 receptors. The cells are then exposed to the novel isoquinolone compounds, after which the substrate luciferin is added and the resulting luminescence measured.
(§9) Prior to the assay human embryonic kidney (HEK) 293 cells (CRL-1573, ATCC) is maintained at 37° C. in minimum essential medium (MEM) supplemented with 10% fetal bovine serum (FBS), 100 units/ml penicillin and 100 μg/ml streptomycin in a humidified atmosphere containing 5% CO2. Human embryonic kidney 293 cells stably transfected with cAMP-responsive element-driven luciferase reporter gene (293-pCREluc) are established and maintained in growth medium supplemented with 300 μg/ml G418 sulphate.
(§10) For luciferase assays, HEK-293 cells stably expressing pCRE-luciferase are seeded at a density of 15,000 cells/well into 96 well plates. Transfection is carried out using Lipofectamine Plus® reagent at 0.2 μl of both Plus and lipofectamine reagents with 50 ng cDNAs encoding MT1 or MT2 receptors per well. After a 3 hour transfection period at 37° C., 50 μl of DMEM with 20% fetal calf serum (FCS) is added into the wells and the plate is incubated at 37° C. for 48 h prior to 24 hour serum starvation. […]
(§11) Cells are harvested by replacing medium in the well by 50 μl luciferase lysis buffer. The Berthold microplate luminometer is maintained at 25° C. throughout the assay. Injector M connected to an empty tube and P connected to the drug tube are set to inject 25 μl of luciferin into appropriate wells. A 1.6 second delay time followed by a 1 second measuring time period is assigned to injector M, whereas injector P is measured for 10 seconds after luciferase substrate is introduced into the well. Results are expressed as relative luminescent units (RLU). Where indicated, agonist-induced activity is expressed as a percentage of the RLU obtained with forskolin.

[4] = system: MT1/293; assay: MTT cytotoxicity assay, MT1/293 cells; assay type: cell-based; conditions: percentage of untreated control cells
Procedure: as §4, §5, §6

[5] = target: T2, MT2 receptor (Homo sapiens, UniProt P49286); assay: CRE-Luc (luciferase reporter gene) assay, MT2; assay type: cell-based; set-up: expressed in transfected cells; conditions: HEK 293-pCREluc cells with MT2; inhibition of forskolin response
T2 sequence (P49286 1-362): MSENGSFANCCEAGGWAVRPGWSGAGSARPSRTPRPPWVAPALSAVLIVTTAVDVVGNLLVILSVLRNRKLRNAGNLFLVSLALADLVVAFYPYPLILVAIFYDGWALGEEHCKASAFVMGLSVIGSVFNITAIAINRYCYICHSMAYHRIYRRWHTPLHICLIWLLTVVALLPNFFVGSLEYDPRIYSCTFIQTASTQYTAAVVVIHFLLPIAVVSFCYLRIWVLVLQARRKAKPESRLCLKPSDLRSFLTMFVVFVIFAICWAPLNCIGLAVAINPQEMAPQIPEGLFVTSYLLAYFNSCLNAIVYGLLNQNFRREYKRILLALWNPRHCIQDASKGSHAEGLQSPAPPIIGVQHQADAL
Procedure: as §7, §8, §9, §10, §11

[6] = target: T2, MT2 receptor; assay: Competitive [3H]melatonin binding assay, MT2; set-up: expressed in transfected cells; conditions: displacement of [3H]melatonin
Procedure: as §1, §2, §3

[7] = system: MT2/293; assay: MTT cytotoxicity assay, MT2/293 cells; assay type: cell-based; conditions: percentage of untreated control cells
Procedure: as §4, §5, §6

[8] = target: T1, MT1 receptor; assay: cAMP assay, MT1; assay type: cell-based; set-up: expressed in transfected cells; host or cells: COS-7 (monkey kidney fibroblast); conditions: inhibition of forskolin-stimulated cAMP production; MT1-expressing cells
[9] = target: T2, MT2 receptor; assay: cAMP assay, MT2; assay type: cell-based; set-up: expressed in transfected cells; host or cells: COS-7 (monkey kidney fibroblast); conditions: inhibition of forskolin-stimulated cAMP production; MT2-expressing cells

T1 sequence (P48039 whole entry): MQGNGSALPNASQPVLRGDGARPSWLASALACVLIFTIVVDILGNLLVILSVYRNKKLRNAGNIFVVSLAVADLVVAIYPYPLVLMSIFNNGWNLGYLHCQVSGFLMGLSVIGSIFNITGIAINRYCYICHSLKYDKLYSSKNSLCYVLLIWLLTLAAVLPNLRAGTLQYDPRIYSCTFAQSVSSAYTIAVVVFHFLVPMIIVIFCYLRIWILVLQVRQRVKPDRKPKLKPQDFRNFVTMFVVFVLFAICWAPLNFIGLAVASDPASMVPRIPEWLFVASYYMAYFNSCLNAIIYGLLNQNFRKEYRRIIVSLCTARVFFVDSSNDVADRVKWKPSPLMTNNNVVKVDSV

In the case of COc1ccc2[nH]c(I)c(CCNC(C)=O)c2c1 [Compound 2-IMT, 2-iodomelatonin, reference compound], the “displacement of bound [3H]melatonin” value ([1]; b129, MT1 or MT2 receptor-expressing cells, both subtypes) is reported as 85-95%, the “Binding Assay MT1 % Inh” value ([1]; displacement of [3H]melatonin) is reported as 94.9% and the “MTT Assay Parental 293 % Viability ± SEM” value [2] is reported as 105.9 ± 4.3%. For the same molecule, the “CRE-Luc Assay MT1 % Inh ± SEM of 1 μM Fsk” value [3] was 73.0 ± 2.2%, the “MTT Assay MT1/293 % Viability ± SEM” value [4] was 113.3 ± 7.0% and the “CRE-Luc Assay MT2 % Inh ± SEM of 1 μM Fsk” value [5] was 61.9 ± 5.0%. For the same molecule, the “Binding Assay MT2 % Inh” value [6] was 85.1%, the “MTT Assay MT2/293 % Viability ± SEM” value [7] was 119.5 ± 8.3% and the “cAMP Assay MT1 % Inh” value [8] was 48.5 ± 17.8%. The “cAMP Assay MT2 % Inh” value [9] was 51.9 ± 5.6%.
